We go through 23 compounds from patent US10023557B2 (LifeSci Pharmaceuticals, Inc., priority 2015, dated 2018).

The structures appear in SMILES notation. pEC50, pIC50: −log10 of the molar value.

For test [1], the target named is cellular kallikrein activity (Homo sapiens (Human), UniProt P03952). Description: In vitro cellular assay (contact assay): kallikrein activity in ellagic acid-activated human plasma, Z-FR-2-AMC substrate. The note with it: human plasma activated with ellagic acid, 37° C. Format: biochemical. On the procedure:
The ability of the compounds disclosed herein to inhibit cellular kallikrein activity was quantified and the respective EC50 value was determined.
All dilutions were prepared in an assay buffer comprising 50 mM Tris-HCl pH 7.2, 150 mM NaCl, and 0.01% Triton X-100.
The ten solutions of the test compounds, prepared by serial dilution, were further diluted 50-fold in the assay buffer.
Human plasma is thawed on ice and centrifuged for 15 min at 4° C. to remove platelets. A 1 mM stock solution of ellagic acid is diluted to 8 μM and mixed with human plasma, after removing platelets, at a ratio of 1:0.8.
A 22.5 μL volume of the final mixture of human plasma and ellagic acid was added to a 96-well microwell plate and the plate was incubated for 15 min at 37° C.
The CINH inhibitor at various concentrations, prepared by serial dilutions as described above, were added to the inhibitor control wells. […] Each CINH concentration is tested in duplicates.
The test compounds at various concentrations, also prepared by serial dilutions as described above, are added to the test wells. […] Each test compound concentration was tested in duplicates.
In addition to the inhibitor control and test wells, the 96 well assay plate includes positive control wells which contained the mixture of human plasma and ellagic acid without C1NH inhibitor or test compounds, and background wells which contained neither the mixture of human plasma and ellagic acid nor the test compounds. The total volume of liquid in positive control and background wells was brought up to 35 μL, using the assay buffer.
The assay plate containing C1NH inhibitors and test compounds mixed with human plasma and ellagic acid and appropriate controls was incubated at 37° C. for 5 min. […] The reagents were mixed well by shaking the plate gently for 30 sec.
The enzyme reaction was quantified by immediate kinetic reading of the assay plate using excitation/emission wavelengths of 330 nm/440 nm respectively. Fluorescence intensity was recorded for 60 min, using a time interval of 43 sec.
The inhibition activity of the test compounds were evaluated using the EC50 values, calculated according to the dose-response curve of the test compounds, fitted using the “log(inhibitor)−response (variable slope)” equation in GraphPadPrism software (GraphPad Software, Inc.).
The percentage inhibition was calculated using the following equation:
[formula] where, Mean (BG) is the average value of the fluorescence intensity of the background wells and Mean (PC) is the average value of the fluorescence intensity of the positive control wells.
Table 4 provides the EC50 values of various compounds disclosed herein.

Test [2] deals with human plasma kallikrein (Homo sapiens (Human), UniProt P03952). Nature of the test: In vitro enzyme inhibition of human plasma kallikrein (PFR-AMC cleavage). Format: biochemical. The note with it: Pro-Phe-Arg-AMC substrate, 37° C., read-out: hPK IC50. The gist of the method:
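Human plasma kallikrein and compound, diluted in 50 mM Tris-HCl pH 7.5, 150 mM NaCl, 0.01% Triton X-100, preincubated 5 min at 37 °C before PFR-AMC was added.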

Sequence of cellular kallikrein activity (P03952 391-638): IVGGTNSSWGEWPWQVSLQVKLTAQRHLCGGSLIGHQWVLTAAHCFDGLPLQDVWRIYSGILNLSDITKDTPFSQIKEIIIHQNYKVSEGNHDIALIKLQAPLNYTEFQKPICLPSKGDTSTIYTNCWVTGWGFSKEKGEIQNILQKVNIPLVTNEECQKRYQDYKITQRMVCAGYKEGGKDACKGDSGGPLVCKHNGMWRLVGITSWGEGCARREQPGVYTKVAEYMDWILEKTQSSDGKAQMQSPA
Sequence of cellular kallikrein activity (P03952 20-390 partner): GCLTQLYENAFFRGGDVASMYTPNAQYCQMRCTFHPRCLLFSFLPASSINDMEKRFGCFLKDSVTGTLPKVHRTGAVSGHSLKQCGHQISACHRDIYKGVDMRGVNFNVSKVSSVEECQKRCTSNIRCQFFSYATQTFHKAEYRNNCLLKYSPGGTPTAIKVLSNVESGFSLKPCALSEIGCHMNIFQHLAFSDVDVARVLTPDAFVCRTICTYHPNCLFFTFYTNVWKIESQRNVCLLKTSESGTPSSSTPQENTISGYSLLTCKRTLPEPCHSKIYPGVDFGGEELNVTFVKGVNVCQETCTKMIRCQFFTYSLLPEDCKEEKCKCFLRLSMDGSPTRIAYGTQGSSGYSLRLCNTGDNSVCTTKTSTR
Sequence of human plasma kallikrein (P03952 391-638): as the sequence (P03952 391-638) above
Sequence of human plasma kallikrein (P03952 20-390 partner): as the sequence (P03952 20-390 partner) above

Take `Nc1nccc2cc(CNC(=O)c3ccnc(Cc4ccc5ncc(Cl)cc5c4)c3)c(F)cc12` [Example 180, N-((1-amino-7-fluoroisoquinolin-6-yl)methyl)-2-((3-chloroquinolin-6-yl)methyl)isonicotinamide]: the pEC50 in test [1] is 6.00 to 7.00. Also, in test [2], the pIC50 was more than 7.00.
Consider `Cc1cc2c(N)nccc2cc1CNC(=O)c1ccnc(Cc2ccc3ncc(Cl)cc3c2)c1` [Example 181, N-((1-amino-7-methylisoquinolin-6-yl)methyl)-2-((3-chloroquinolin-6-yl)methyl)isonicotinamide], for which the pEC50 in test [1] is more than 7.00. The pIC50 in test [2] is more than 7.00.
As to `Nc1nccc2cc(CNC(=O)c3ccnc(Cc4ccc5ncc(C(F)(F)F)cc5c4)c3)c(F)cc12` [Example 182, N-((1-amino-7-fluoroisoquinolin-6-yl)methyl)-2-((3-(trifluoromethyl)quinolin-6-yl)methyl)isonicotinamide], the pEC50 in test [1] is 6.00 to 7.00. The negative logarithm of the IC50 (pIC50) in test [2] is more than 7.00.
In turn, `Cc1cc2c(N)nccc2cc1CNC(=O)c1ccnc(Cc2ccc3ncc(C(F)(F)F)cc3c2)c1` [Example 183, N-((1-amino-7-methylisoquinolin-6-yl)methyl)-2-((3-(trifluoromethyl)quinolin-6-yl)methyl)isonicotinamide] showed a pEC50 in test [1] of more than 7.00. Further, the pIC50 in test [2] is more than 7.00.
With `Cc1c(CNC(=O)c2ccnc(Cc3ccc4ncc(C(F)(F)F)cc4c3)c2)ccc2c(N)nccc12` [Example 184, N-((1-amino-5-methylisoquinolin-6-yl)methyl)-2-((3-(trifluoromethyl)quinolin-6-yl)methyl)isonicotinamide], in test [1], the pEC50 was more than 7.00. In test [2], the pIC50 was more than 7.00.
With `Nc1nc(C(F)(F)F)n2cc(CNC(=O)c3ccnc(Cc4ccc5ncc(Cl)cc5c4)c3)ccc12` [Example 186, N-((1-amino-3-(trifluoromethyl)imidazo[1,5-a]pyridin-6-yl)methyl)-2-((3-chloroquinolin-6-yl)methyl)isonicotinamide], the pEC50 in test [1] is more than 7.00. Also, the pIC50 in test [2] was more than 7.00.
Consider `Cc1cc(N)nc(C)c1CNC(=O)c1ccnc(Cc2cnc3ncc(Cl)cc3c2)c1` [Example 204, N-((6-amino-2,4-dimethylpyridin-3-yl)methyl)-2-((6-chloro-1,8-naphthyridin-3-yl)methyl)isonicotinamide], for which the pEC50 in test [1] is more than 7.00. The pIC50 in test [2] is more than 7.00.
On to `Cc1cc(N)nc(C)c1CNC(=O)c1cc(Cc2ccc3ncc(Cl)cc3c2)nc(C(N)=O)c1` [Example 208, N^4-((6-amino-2,4-dimethylpyridin-3-yl)methyl)-6-((3-chloroquinolin-6-yl)methyl)pyridine-2,4-dicarboxamide], for which the pEC50 in test [1] was more than 7.00. The pIC50 in test [2] was more than 7.00.
As to `Cc1cc(N)nc(C)c1CNC(=O)c1cc(Cc2ccc3ncc(Cl)cc3c2)nc(C(C)(C)O)c1` [Example 210, N-((6-amino-2,4-dimethylpyridin-3-yl)methyl)-2-((3-chloroquinolin-6-yl)methyl)-6-(2-hydroxypropan-2-yl)isonicotinamide], the pEC50 in test [1] is more than 7.00. In addition, the pIC50 in test [2] is more than 7.00.
In test [1], `Cc1cc(N)nc(C)c1CNC(=O)c1cc(CN)nc(Cc2ccc3ncc(Cl)cc3c2)c1` [Example 211, N-((6-amino-2,4-dimethylpyridin-3-yl)methyl)-2-(aminomethyl)-6-((3-chloroquinolin-6-yl)methyl)isonicotinamide] showed a pEC50 of more than 7.00. Moreover, the pIC50 in test [2] is more than 7.00.
In test [1], `Cc1cc(N)nc(C)c1CNC(=O)c1cc(CO)nc(Cc2ccc3ncc(Cl)cc3c2)c1` [Example 212, N-((6-amino-2,4-dimethylpyridin-3-yl)methyl)-2-((3-chloroquinolin-6-yl)methyl)-6-(hydroxymethyl)isonicotinamide] showed a pEC50 of more than 7.00. Moreover, the pIC50 in test [2] was more than 7.00.
Compound `Cc1cc(N)nc(C)c1CNC(=O)c1cc(CC#N)nc(Cc2ccc3ncc(Cl)cc3c2)c1` [Example 213, N-((6-amino-2,4-dimethylpyridin-3-yl)methyl)-2-((3-chloroquinolin-6-yl)methyl)-6-(cyanomethyl)isonicotinamide] gave a pEC50 in test [1] of more than 7.00. Also, the pIC50 in test [2] was more than 7.00.
As for `Cc1cc(N)nc(C)c1CNC(=O)c1cc(CC(N)=O)nc(Cc2ccc3ncc(Cl)cc3c2)c1` [Example 214, N-((6-amino-2,4-dimethylpyridin-3-yl)methyl)-2-(2-amino-2-oxoethyl)-6-((3-chloroquinolin-6-yl)methyl)isonicotinamide], in test [1], the pEC50 is more than 7.00. Further, in test [2], the negative-log IC50 (pIC50) is more than 7.00.
For the compound `Cc1cc(N)nc(C)c1CNC(=O)c1ccnc(Cc2cc3cc(C(F)(F)F)cnc3[nH]2)c1` [Example 215, N-((6-amino-2,4-dimethylpyridin-3-yl)methyl)-2-((5-(trifluoromethyl)-1H-pyrrolo[2,3-b]pyridin-2-yl)methyl)isonicotinamide], the pEC50 in test [1] is 6.00 to 7.00. Also, the pIC50 in test [2] was more than 7.00.
The like results for `Cc1cc(N)nc(C)c1CNC(=O)c1ccnc(Cc2cc(N)c3ncc(Cl)cc3c2)c1` [Example 217, N-((6-amino-2,4-dimethylpyridin-3-yl)methyl)-2-((8-amino-3-chloroquinolin-6-yl)methyl)isonicotinamide] were, in that order, more than 7.00 and more than 7.00.
On to `Cc1cc(N)nc(C)c1CNC(=O)c1ccnc(Cc2cc(C(C)(C)O)c3ncc(Cl)cc3c2)c1` [Example 219, N-((6-amino-2,4-dimethylpyridin-3-yl)methyl)-2-((3-chloro-8-(2-hydroxypropan-2-yl)quinolin-6-yl)methyl)isonicotinamide], for which, in test [1], the pEC50 was more than 7.00. Also, the pIC50 in test [2] is more than 7.00.
As for `Cc1nc(N)ccc1CNC(=O)c1ccnc(Cc2cc(C(C)(C)O)c3ncc(Cl)cc3c2)c1` [Example 220, N-((6-amino-2-methylpyridin-3-yl)methyl)-2-((3-chloro-8-(2-hydroxypropan-2-yl)quinolin-6-yl)methyl)isonicotinamide], the pEC50 in test [1] is more than 7.00. In test [2], the pIC50 was more than 7.00.
In test [1], `CC(C)(O)c1cc(Cc2cc(C(=O)NCc3cc4c(Cl)c[nH]c4cc3F)ccn2)cc2cc(Cl)cnc12` [Example 221, N-((3-chloro-6-fluoro-1H-indol-5-yl)methyl)-2-((3-chloro-8-(2-hydroxypropan-2-yl)quinolin-6-yl)methyl)isonicotinamide] had a negative logarithm of the EC50 (pEC50) of 6.00 to 7.00. The pIC50 in test [2] is more than 7.00.
In test [1], `CC(C)(O)c1cc(Cc2cc(C(=O)NCc3ccc4[nH]cc(Cl)c4c3F)ccn2)cc2cc(Cl)cnc12` [Example 222, N-((3-chloro-4-fluoro-1H-indol-5-yl)methyl)-2-((3-chloro-8-(2-hydroxypropan-2-yl)quinolin-6-yl)methyl)isonicotinamide] had a pEC50 of 6.00 to 7.00. Also, in test [2], the pIC50 is more than 7.00.
The like results for `CC(C)(O)c1cc(Cc2cc(C(=O)NCc3cnc4[nH]cc(Cl)c4c3)ccn2)cc2cc(Cl)cnc12` [Example 223, N-((3-chloro-1H-pyrrolo[2,3-b]pyridin-5-yl)methyl)-2-((3-chloro-8-(2-hydroxypropan-2-yl)quinolin-6-yl)methyl)isonicotinamide] were, in that order, more than 7.00 and more than 7.00.
The compound `CC(C)(O)c1cc(Cc2cc(C(=O)NCc3ccc4c(N)nccc4c3)ccn2)cc2cc(Cl)cnc12` [Example 224, N-((1-aminoisoquinolin-6-yl)methyl)-2-((3-chloro-8-(2-hydroxypropan-2-yl)quinolin-6-yl)methyl)isonicotinamide] had a pEC50 in test [1] of more than 7.00. The pIC50 in test [2] was more than 7.00.
As for `CC(C)(O)c1cc(Cc2cc(C(=O)NCc3n[nH]c4ccc(Cl)cc34)ccn2)cc2cc(Cl)cnc12` [Example 225, N-((5-chloro-1H-indazol-3-yl)methyl)-2-((3-chloro-8-(2-hydroxypropan-2-yl)quinolin-6-yl)methyl)isonicotinamide], the pEC50 in test [1] is 6.00 to 7.00. Further, in test [2], the pIC50 was more than 7.00.
With `Cc1cc(N)nc(C)c1CNC(=O)c1ccnc(Cc2cnc3cc(F)c(Cl)cc3c2)c1` [Example 226, N-((6-amino-2,4-dimethylpyridin-3-yl)methyl)-2-((6-chloro-7-fluoroquinolin-3-yl)methyl)isonicotinamide], the pEC50 in test [1] was more than 7.00. The pIC50 in test [2] was more than 7.00.
